Reference: PMC6182140 (Nucleic Acids Research, 2018)
Like-named read-outs stand apart in the source and are kept apart here.

How the values were obtained:
pol η–PCNA holoenzyme [1] = experiment: TLS time course of pol η on cisPt(GG) template; format: biochemical, human; settings: cisPt(GG) template 10 nM, pol η 40 nM; p15 with equimolar PCNA (p15), 10-fold excess PCNA (PCNA), or pol η alone; pH 8, 37°C
Procedure: (§1) The 24-mer template oligonucleotide containing the cis-PtGG adduct was a kind gift from S.J. Sturla (ETH, Zürich) and was prepared and purified as described previously (Nilforoushan, 2015). All other DNA oligonucleotides, all HPLC purified, were synthesized by Biomers.net (Germany). The 18mer primer oligonucleotide was 5′-labeled with carboxyfluorescin (FAM) group. The labeled primer was mixed to the complementary template oligonucleotide at 1:1 (M/M) ratio in the presence of 150 mM Hepes–KOH pH 7.4, 500 mM KCl, 10 mM MgCl2, 250 mM NH4Ac, heated at 95°C for 5 min and then slowly cooled at room temperature.
pJM879 ([33]), expressing N-terminal His-tagged human pol η, was a kind gift from R. Woodgate (NIH, USA). Human recombinant pol η was expressed and purified with a modified protocol: BL21 DE3 competent E. coli cells were transformed with pJM879. Plates containing […] kanamycin were used to identify kanamycin-resistant colonies that were picked and grown overnight at 37°C. […] Transformed E. coli cells were used to inoculate a 50 ml starter culture. After overnight growth at 37°C, 12 ml of the starter culture were put into 1 l of LB medium (containing […] kanamycin). After 6 h growth at 37°C, cells were harvested by centrifugation and pellet frozen at –80°C. […]

pol η–PCNA holoenzyme [2] = experiment: DNA synthesis by pol η on undamaged template; format: biochemical, human
Procedure: as §1
pJM879 ([33]), expressing N-terminal His-tagged human pol η, was a kind gift from R. Woodgate (NIH, USA). Human recombinant pol η was expressed and purified with a modified protocol: BL21 DE3 competent E. coli cells were transformed with pJM879. Plates containing […] kanamycin were used to identify kanamycin-resistant colonies that were picked and grown overnight at 37°C. […] Transformed E. coli cells were used to inoculate a 50 ml starter culture. After overnight growth at 37°C, 12 ml of the starter culture were put into 1 l of LB medium (containing […] kanamycin). After 6 h growth at 37°C, cells were harvested by centrifugation and pellet frozen at –80°C. The pellet was resuspended in 40ml of lysis buffer (50mM Tris–HCl pH 7.5, 0.3 M NaCl, 20 mM imidazole, 10% glycerol, 10 mM b-mercaptoethanol [BME], 1× lysozime (Eurobio, Courtaboeuf, France), 1× ethylenediaminetetraacetic acid [EDTA]-free protease inhibitor ([…]™ Protease Inhibitor Cocktail Tablets, Sigma-Aldrich), 1 mM phenylmethane sulfonyl fluoride [PMSF] and lysed through sonication. After ultracentrifugation at 98 000g at 4°C for 1.5 h, the supernatant was loaded onto a 1-ml Ni-NTA column (HisTrap™ HP, GE Healthcare). Column washing was performed with 3 ml of W1 buffer ([…] pH 7.5, 1 M NaCl, 20 mM imidazole, 10% glycerol, 10 mM BME) followed by 3 ml of W2 buffer (10 mM Na-phosphate pH 7.7, 0.3 M NaCl, 20 mM imidazole, 10% glycerol, 10 mM BME). Elution of target protein was obtained using buffer H (10 mM Na-phosphate pH 7.7, 0.3 M NaCl, 200 mM imidazole, 10% glycerol, 10 mM BME). The pol η positive fractions (0.5 ml each) were pooled and overnight dialyzed with buffer M (20 mM Na-phosphate pH 7.3, 0.1 M NaCl, 10% glycerol, 10 mM BME), in dialysis cassette (Slide-A-Lyzer™ Dialysis Cassettes, 3.5K MWCO, Thermo Scientific). Pool was then loaded onto a 1-ml cation exchanger column (HiTrap SP, Pharmacia Biotech). Buffer N (20 mM Na-phosphate pH 7.3, 0.5 M NaCl, 10% glycerol, 10 mM BME) was used to elute pol η with a linear gradient. The pol ηpositive fractions (0.5 ml each) were aliquoted and stored at –80°C in 20% final glycerol.
(§2) All reactions were performed in a 10 μl final volume using the following conditions: 40 mM Tris pH 8, 1 mM dithiotreitol (DTT), 0.25 mg/ml bovine serum albumin (BSA), 10 mM Mg^2+ (unless otherwise stated in the figures or figure legends). Reactions were incubated at 37°C for 15 min, unless otherwise stated. Reaction mixtures were stopped by addition of standard denaturing gel loading buffer (95% formamide, […], xylene cyanol and bromophenol blue), heated at 95°C for 5 min and loaded on a 7-M urea 12% polyacrylamide (PA) gel.
Figure 4. […] Reactants at the indicated concentrations were incubated at 37°C for 30 s and the reaction was stopped by addition of standard denaturing gel loading buffer.

pol η–PCNA holoenzyme [3] = experiment: TLS by pol η on cis-Pt template in the presence of RF-C; format: biochemical, human; settings: 50 µM dNTPs, 0.5 mM ATP, 150 nM ScRF-C, 400 nM pol η, 400 nM p15, 50 nM PCNA
Procedure: Recombinant ScRF-C was obtained as a kind gift from the laboratory of Alessandro Costa (Francis Crick Institute), and was prepared following the procedure described in ([34]).
as §2
18/24mer primer-template substrate bearing a cis-Pt adduct at the two guanines at positions +1
and +2 of the template strand, in the presence of RF-C and in the absence (lanes 10-13) or in the
Reactant concentrations were: 50
(1 picture or pasted object on this page, not shown here)

pol η = experiment: DNA synthesis by pol η without PCNA, undamaged control template; format: biochemical, human; settings: pol η 70 nM, p15 400 nM, no PCNA, control template 10 nM
Procedure: pJM879 ([33]), expressing N-terminal His-tagged human pol η, was a kind gift from R. Woodgate (NIH, USA). Human recombinant pol η was expressed and purified with a modified protocol: BL21 DE3 competent E. coli cells were transformed with pJM879. Plates containing […] kanamycin were used to identify kanamycin-resistant colonies that were picked and grown overnight at 37°C. DNA purified from bacterial cultures using NucleoSpin® Plasmid (NoLid) kit ([…]-NAGEL, Düren, Germany) was digested to confirm the presence of the gene expressing pol η. Transformed E. coli cells were used to inoculate a 50 ml starter culture. After overnight growth at 37°C, 12 ml of the starter culture were put into 1 l of LB medium (containing […] kanamycin). After 6 h growth at 37°C, cells were harvested by centrifugation and pellet frozen at –80°C. […]

DNA = settings: cited from earlier work
Procedure: (§3) Thus, each dNTP insertion step is carried out by a combination of pol η alone and pol η holoenzyme. However, if ...

PCNA (Homo sapiens) [4] = molecular target: PCNA (Homo sapiens) (UniProt P12004); experiment: ITC; settings: cited from earlier work
PCNA (Homo sapiens) [5] = molecular target: PCNA (Homo sapiens) (UniProt P12004); experiment: SPR; settings: cited from earlier work
PCNA = settings: read-out: Kd pol η–PCNA (SPR); surface plasmon resonance at 25°C; cited from earlier work
Procedure: as §3

UniProt P12004, sequence (P12004 whole entry): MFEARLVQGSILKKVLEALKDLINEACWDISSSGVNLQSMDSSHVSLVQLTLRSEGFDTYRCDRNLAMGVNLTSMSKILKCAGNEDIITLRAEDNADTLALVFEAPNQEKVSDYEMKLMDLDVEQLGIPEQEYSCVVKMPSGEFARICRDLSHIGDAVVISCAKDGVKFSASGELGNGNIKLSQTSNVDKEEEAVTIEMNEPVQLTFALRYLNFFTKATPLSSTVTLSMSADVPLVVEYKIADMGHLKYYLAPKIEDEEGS

p15: PCNA–associated factor, oncogenic 11 kDa intrinsically disordered protein
effect on lesion bypass / nucleotide incorporation (pol η–PCNA holoenzyme [1]): reduced nucleotide incorporation at +2 and +3 positions | effect on nucleotide incorporation at initial time point (pol η–PCNA holoenzyme [2]; undamaged template 10 nM, with PCNA and p15 equimolar, lane 2, 37°C, pH 8): reduced nucleotide incorporation at position +2 | effect on synthesis of full-length product (pol η–PCNA holoenzyme [2]; undamaged template 10 nM, with PCNA and p15 equimolar, lanes 3–5, 37°C, pH 8): slowed down the synthesis of the full-length product | comparison of pol η inhibition by p15 and p15^41–72 in conjunction with PCNA (pol η–PCNA holoenzyme [2]; undamaged template, 37°C for 30 s): able to reduce pol η synthesis at comparable levels | effect on DNA synthesis in combination with PCNA (pol η–PCNA holoenzyme [2]; undamaged template, 37°C for 30 s, with respect to pol η and PCNA alone, synthesis stopped at +1 and +2): reduction of DNA synthesis | effect on TLS in the presence of RF-C (pol η–PCNA holoenzyme [3]; 40 nM cis-Pt 18/24mer): delays TLS by pol η–PCNA across a cis-Pt lesion even in the presence of RF-C | accumulated products in the presence of RF-C (pol η–PCNA holoenzyme [3]; p15 in combination with PCNA): accumulation of +1 and +2 products | effect of p15 alone on pol η activity (pol η): does not affect the activity of the polymerase | Kd (DNA; read-out: affinity of p15 for DNA): 5000 nM

p15PAF (from UniProt Q15004)
Kd (PCNA (Homo sapiens) [4]): 1100 nM

pol η (from UniProt Q9Y253)
Kd (PCNA (Homo sapiens) [5]): 400 nM

B1: pol η: human recombinant translesion synthesis polymerase η, N-terminal His-tagged (protein, UniProt Q9Y253 1-713, looked up)
DNA polymerase eta: MATGQDRVVALVDMDCFFVQVEQRQNPHLRNKPCAVVQYKSWKGGGIIAVSYEARAFGVTRSMWADDAKKLCPDLLLAQVRESRGKANLTKYREASVEVMEIMSRFAVIERASIDEAYVDLTSAVQERLQKLQGQPISADLLPSTYIEGLPQGPTTAEETVQKEGMRKQGLFQWLDSLQIDNLTSPDLQLTVGAVIVEEMRAAIERETGFQCSAGISHNKVLAKLACGLNKPNRQTLVSHGSVPQLFSQMPIRKIRSLGGKLGASVIEILGIEYMGELTQFTESQLQSHFGEKNGSWLYAMCRGIEHDPVKPRQLPKTIGCSKNFPGKTALATREQVQWWLLQLAQELEERLTKDRNDNDRVATQLVVSIRVQGDKRLSSLRRCCALTRYDAHKMSHDAFTVIKNCNTSGIQTEWSPPLTMLFLCATKFSASAPSSSTDITSFLSSDPSSLPKVPVTSSEAKTQGSGPAVTATKKATTSLESFFQKAAERQKVKEASLSSLTAPTQAPMSNSPSKPSLPFQTSQSTGTEPFFKQKSLLLKQKQLNNSSVSSPQQNPWSNCKALPNSLPTEYPGCVPVCEGVSKLEESSKATPAEMDLAHNSQSMHASSASKSVLEVTQKATPNPSLLAAEDQVPCEKCGSLVPVWDMPEHMDYHFALELQKSFLQPHSSNPQVVSAVSHQGKRNPKSPLACTNKRPRPEGMQTLESFFKPLTH
modifications: N-terminal His tag
notes: human recombinant translesion synthesis polymerase η, N-terminal His-tagged
effect on lesion bypass / nucleotide incorporation (pol η–PCNA holoenzyme [1]): able to complete the bypass | processivity (pol η–PCNA holoenzyme [2]; undamaged template 10 nM, pol η alone or with PCNA, 37°C, pH 8): equal processivity | Kd (DNA; read-out: affinity of pol η for DNA): 30 nM | Kd (PCNA): 400 nM
